Test results from patent US10738028B2, “Spiro three-membered ring, spiro five-membered ring peptide deformylase inhibitor and use thereof in antibacteria and anti-tumor” (priority 2016, dated 2020).

Legend:
Type in all cases: cell-based
[1] = test system: HCT-116 colorectal cancer cell line; test: CCK-8 proliferation inhibition; settings: Homo sapiens, HCT-116, 72 h, concentration of 30 μM; 72 hours; CCK-8; read-out: HCT116 inhibition rate/%
Summary of the method: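 Growth inhibition is read by CCK-8 (1:10 dilution) after 72 h of compound exposure. HCT-116 cells grow in McCoy's 5A containing 10% newborn bovine serum at 2000 cells/well, with 1‰ DMSO as vehicle control.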

[2] = test system: methicillin-resistant Staphylococcus aureus (MRSA); test: MIC, two-fold agar dilution (CLSI), clinical isolates; settings: for Anti-bacterial activity (MIC), strain MRSA 15-1: clinical isolate MRSA 15-1; for Anti-bacterial activity (MIC), strain MRSA 15-2: clinical isolate MRSA 15-2; for Anti-bacterial activity (MIC), strain MRSA 15-3: clinical isolate MRSA 15-3; for Anti-bacterial activity (MIC), strain MRSA 15-4: clinical isolate MRSA 15-4
Summary of the method: (§1)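 Following the American Clinical and Laboratory Standards Institute procedure, agar two-fold dilution served to determine minimum inhibitory concentrations.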

[3] = test system: methicillin-resistant Staphylococcus epidermidis (MRSE); test: as above; settings: for Anti-bacterial activity (MIC), strain MRSE 15-1: clinical isolate MRSE 15-1; for Anti-bacterial activity (MIC), strain MRSE 15-2: clinical isolate MRSE 15-2; for Anti-bacterial activity (MIC), strain MRSE 15-3: clinical isolate MRSE 15-3; for Anti-bacterial activity (MIC), strain MRSE 15-7: clinical isolate MRSE 15-7
Summary of the method: as §1

[4] = test system: Escherichia coli (including ESBLs, non-ESBLs); test: as above; settings: for Anti-bacterial activity (MIC), strain ECO+ 15-1: clinical isolate ECO+ 15-1; for Anti-bacterial activity (MIC), strain ECO+ 15-2: clinical isolate ECO+ 15-2; for Anti-bacterial activity (MIC), strain ECO+ 15-3: clinical isolate ECO+ 15-3; for Anti-bacterial activity (MIC), strain ECO+ 15-4: clinical isolate ECO+ 15-4; for Anti-bacterial activity (MIC), strain ECO− 15-1: clinical isolate ECO− 15-1; for Anti-bacterial activity (MIC), strain ECO− 15-2: clinical isolate ECO− 15-2; for Anti-bacterial activity (MIC), strain ECO− 15-3: clinical isolate ECO− 15-3; for Anti-bacterial activity (MIC), strain ECO− 15-4: clinical isolate ECO− 15-4
Summary of the method: as §1

[5] = test system: Moraxella catarrhalis (BCA); test: as above; settings: for Anti-bacterial activity (MIC), strain BCA 14-1: clinical isolate BCA 14-1; for Anti-bacterial activity (MIC), strain BCA 14-4: clinical isolate BCA 14-4; for Anti-bacterial activity (MIC), strain BCA 14-5: clinical isolate BCA 14-5; for Anti-bacterial activity (MIC), strain BCA 14-6: clinical isolate BCA 14-6; for Anti-bacterial activity (MIC), strain BCA 14-7: clinical isolate BCA 14-7; for Anti-bacterial activity (MIC), strain BCA 14-8: clinical isolate BCA 14-8; for Anti-bacterial activity (MIC), strain BCA 14-10: clinical isolate BCA 14-10
Summary of the method: as §1

[6] = test system: methicillin-sensitive Staphylococcus aureus (MSSA); test: as above; settings: for Anti-bacterial activity (MIC), strain MSSA 15-3: clinical isolate MSSA 15-3; for Anti-bacterial activity (MIC), strain MSSA 15-4: clinical isolate MSSA 15-4; for Anti-bacterial activity (MIC), strain MSSA 15-5: clinical isolate MSSA 15-5; for Anti-bacterial activity (MIC), strain MSSA 15-6: clinical isolate MSSA 15-6
Summary of the method: as §1

[7] = test system: methicillin-sensitive Staphylococcus epidermidis (MSSE); test: as above; settings: for Anti-bacterial activity (MIC), strain MSSE 15-3: clinical isolate MSSE 15-3; for Anti-bacterial activity (MIC), strain MSSE 15-4: clinical isolate MSSE 15-4; for Anti-bacterial activity (MIC), strain MSSE 15-5: clinical isolate MSSE 15-5; for Anti-bacterial activity (MIC), strain MSSE 15-6: clinical isolate MSSE 15-6
Summary of the method: as §1

[8] = test system: Streptococcus pneoumoniae (SPN); test: as above; settings: for Anti-bacterial activity (MIC), strain SPN 16-2: clinical isolate SPN 16-2; for Anti-bacterial activity (MIC), strain SPN 16-4: clinical isolate SPN 16-4
Summary of the method: as §1

[9] = test system: Enterococcus faecalis (EFA); test: as above; settings: for Anti-bacterial activity (MIC), strain EFA 15-1: clinical isolate EFA 15-1; for Anti-bacterial activity (MIC), strain EFA 15-2: clinical isolate EFA 15-2; for Anti-bacterial activity (MIC), strain EFA 15-3: clinical isolate EFA 15-3; for Anti-bacterial activity (MIC), strain EFA 15-4: clinical isolate EFA 15-4; for Anti-bacterial activity (MIC), strain EFA 15-5: clinical isolate EFA 15-5; for Anti-bacterial activity (MIC), strain EFA 15-6: clinical isolate EFA 15-6; for Anti-bacterial activity (MIC), strain EFA 15-9: clinical isolate EFA 15-9
Summary of the method: as §1

[10] = test system: Enterococcus faecium (EFM); test: as above; settings: for Anti-bacterial activity (MIC), strain EFM 15-1: clinical isolate EFM 15-1; for Anti-bacterial activity (MIC), strain EFM 15-2: clinical isolate EFM 15-2; for Anti-bacterial activity (MIC), strain EFM 15-3: clinical isolate EFM 15-3; for Anti-bacterial activity (MIC), strain EFM 15-4: clinical isolate EFM 15-4; for Anti-bacterial activity (MIC), strain EFM 15-5: clinical isolate EFM 15-5; for Anti-bacterial activity (MIC), strain EFM 15-6: clinical isolate EFM 15-6
Summary of the method: as §1

CCCC[C@H](CC(=O)NO)C(=O)N1CC2(CC2)C[C@H]1C(=O)Nc1ccncn1 [Example 45]
> 32 µg/mL: Anti-bacterial activity (MIC), strain ECO+ 15-2 [4] | Anti-bacterial activity (MIC), strain ECO+ 15-3 [4] | Anti-bacterial activity (MIC), strain ECO− 15-2 [4] | Anti-bacterial activity (MIC), strain ECO− 15-3 [4] | Anti-bacterial activity (MIC), strain ECO− 15-4 [4] | Anti-bacterial activity (MIC), strain MSSA 15-6 [6] | Anti-bacterial activity (MIC), strain EFA 15-1 [9] | Anti-bacterial activity (MIC), strain EFA 15-2 [9] | Anti-bacterial activity (MIC), strain EFA 15-3 [9] | Anti-bacterial activity (MIC), strain EFA 15-4 [9] | Anti-bacterial activity (MIC), strain EFA 15-5 [9] | Anti-bacterial activity (MIC), strain EFA 15-6 [9] | Anti-bacterial activity (MIC), strain EFM 15-1 [10] | Anti-bacterial activity (MIC), strain EFM 15-2 [10] | Anti-bacterial activity (MIC), strain EFM 15-3 [10] | Anti-bacterial activity (MIC), strain EFM 15-4 [10]
32 µg/mL: Anti-bacterial activity (MIC), strain ECO+ 15-1 [4] | Anti-bacterial activity (MIC), strain ECO− 15-1 [4]
1 µg/mL: Anti-bacterial activity (MIC), strain MRSA 15-2 [2] | Anti-bacterial activity (MIC), strain MRSA 15-3 [2] | Anti-bacterial activity (MIC), strain MRSA 15-4 [2] | Anti-bacterial activity (MIC), strain MRSE 15-1 [3] | Anti-bacterial activity (MIC), strain MRSE 15-2 [3] | Anti-bacterial activity (MIC), strain MRSE 15-3 [3] | Anti-bacterial activity (MIC), strain MRSE 15-7 [3] | Anti-bacterial activity (MIC), strain ECO+ 15-4 [4] | Anti-bacterial activity (MIC), strain BCA 14-1 [5] | Anti-bacterial activity (MIC), strain BCA 14-4 [5] | Anti-bacterial activity (MIC), strain BCA 14-7 [5] | Anti-bacterial activity (MIC), strain BCA 14-8 [5] | Anti-bacterial activity (MIC), strain BCA 14-10 [5] | Anti-bacterial activity (MIC), strain MSSA 15-4 [6] | Anti-bacterial activity (MIC), strain MSSA 15-5 [6] | Anti-bacterial activity (MIC), strain MSSE 15-3 [7] | Anti-bacterial activity (MIC), strain MSSE 15-4 [7] | Anti-bacterial activity (MIC), strain MSSE 15-5 [7] | Anti-bacterial activity (MIC), strain MSSE 15-6 [7]
0.5 µg/mL: Anti-bacterial activity (MIC), strain MRSA 15-1 [2] | Anti-bacterial activity (MIC), strain BCA 14-5 [5] | Anti-bacterial activity (MIC), strain BCA 14-6 [5] | Anti-bacterial activity (MIC), strain MSSA 15-3 [6] | Anti-bacterial activity (MIC), strain SPN 16-2 [8] | Anti-bacterial activity (MIC), strain SPN 16-4 [8] | Anti-bacterial activity (MIC), strain EFM 15-5 [10] | Anti-bacterial activity (MIC), strain EFM 15-6 [10]
16 µg/mL: Anti-bacterial activity (MIC), strain EFA 15-9 [9]
25%: inhibition at 30 µM [1]

CCCC[C@H](CC(=O)NO)C(=O)N1CC2(CC2)C[C@H]1C(=O)Nc1ncc(C)s1 [Example 47, (S)-5-((R)-2-(2-(hydroxyamino)-2-oxoethyl)hexanoyl)-N-(5-methylthiazol-2-yl)-5-azaspiro[2.4]heptane-6-amide]
1 µg/mL: Anti-bacterial activity (MIC), strain BCA 14-8 [5] | Anti-bacterial activity (MIC), strain EFM 15-6 [10]
4 µg/mL: Anti-bacterial activity (MIC), strain BCA 14-1 [5] | Anti-bacterial activity (MIC), strain BCA 14-4 [5] | Anti-bacterial activity (MIC), strain EFA 15-9 [9]
> 32 µg/mL: Anti-bacterial activity (MIC), strain ECO+ 15-2 [4] | Anti-bacterial activity (MIC), strain ECO+ 15-3 [4] | Anti-bacterial activity (MIC), strain ECO− 15-1 [4] | Anti-bacterial activity (MIC), strain ECO− 15-2 [4] | Anti-bacterial activity (MIC), strain ECO− 15-3 [4] | Anti-bacterial activity (MIC), strain ECO− 15-4 [4] | Anti-bacterial activity (MIC), strain MSSA 15-6 [6] | Anti-bacterial activity (MIC), strain EFA 15-1 [9] | Anti-bacterial activity (MIC), strain EFA 15-2 [9] | Anti-bacterial activity (MIC), strain EFA 15-3 [9] | Anti-bacterial activity (MIC), strain EFA 15-4 [9] | Anti-bacterial activity (MIC), strain EFA 15-5 [9] | Anti-bacterial activity (MIC), strain EFA 15-6 [9] | Anti-bacterial activity (MIC), strain EFM 15-1 [10] | Anti-bacterial activity (MIC), strain EFM 15-2 [10] | Anti-bacterial activity (MIC), strain EFM 15-3 [10] | Anti-bacterial activity (MIC), strain EFM 15-4 [10]
2 µg/mL: Anti-bacterial activity (MIC), strain BCA 14-6 [5] | Anti-bacterial activity (MIC), strain BCA 14-7 [5]
32 µg/mL: Anti-bacterial activity (MIC), strain ECO+ 15-1 [4]
20%: inhibition at 30 µM [1]
0.25 µg/mL: Anti-bacterial activity (MIC), strain MRSA 15-1 [2] | Anti-bacterial activity (MIC), strain MRSA 15-3 [2] | Anti-bacterial activity (MIC), strain BCA 14-5 [5] | Anti-bacterial activity (MIC), strain EFM 15-5 [10]
0.5 µg/mL: Anti-bacterial activity (MIC), strain MRSA 15-2 [2] | Anti-bacterial activity (MIC), strain MRSA 15-4 [2] | Anti-bacterial activity (MIC), strain MRSE 15-1 [3] | Anti-bacterial activity (MIC), strain MRSE 15-2 [3] | Anti-bacterial activity (MIC), strain MRSE 15-3 [3] | Anti-bacterial activity (MIC), strain MRSE 15-7 [3] | Anti-bacterial activity (MIC), strain ECO+ 15-4 [4] | Anti-bacterial activity (MIC), strain BCA 14-10 [5] | Anti-bacterial activity (MIC), strain MSSA 15-3 [6] | Anti-bacterial activity (MIC), strain MSSA 15-4 [6] | Anti-bacterial activity (MIC), strain MSSA 15-5 [6] | Anti-bacterial activity (MIC), strain MSSE 15-3 [7] | Anti-bacterial activity (MIC), strain MSSE 15-4 [7] | Anti-bacterial activity (MIC), strain MSSE 15-5 [7] | Anti-bacterial activity (MIC), strain MSSE 15-6 [7] | Anti-bacterial activity (MIC), strain SPN 16-2 [8] | Anti-bacterial activity (MIC), strain SPN 16-4 [8]
